Experimental data reported in patent publication EP4389751A1, “HETEROCYCLIC COMPOUNDS AND USES THEREOF” (Kumquat Biosciences Inc., priority 2021, dated 2024).
Where two headings read alike, the source gives them in different places.

What was measured:
K-Ras G12S = molecular target: T1, K-Ras G12S (Homo sapiens, UniProt P01116, G12S); experiment: HTRF assay of the K-Ras / SOS1 interaction; assay type: biochemical; details: IC50 (against K-Ras G12D) to IC50 (against K-Ras G12S)
T1 construct: made in house; host or cells: E. coli (e.g., BL21 (DE3))
T1 sequence (P01116 1-188 isoform P01116-2 G12S): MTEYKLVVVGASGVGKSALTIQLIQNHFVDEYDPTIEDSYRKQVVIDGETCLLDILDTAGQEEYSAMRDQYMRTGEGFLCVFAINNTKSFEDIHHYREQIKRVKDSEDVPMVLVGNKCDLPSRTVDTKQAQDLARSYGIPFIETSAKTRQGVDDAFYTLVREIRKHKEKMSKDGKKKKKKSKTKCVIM
Method in brief: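 GST-K-Ras G12S with anti-GST-Eu donor and His-hSOS1 with anti-6His-XL665 acceptor in ~5 mM HEPES pH 7.4, ~150 mM NaCl, 1 mM DTT, 0.05% BSA, 0.0025% Igepal. Read after ~10 min or longer; IC50 from 665/620 nm ratio, duplicates at 10 µM down to 0.01 µM.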

GP2D cells = experiment: Cell proliferation assay (CellTiter-Glo), K-Ras G12D cells; assay type: cell-based; details: read-out: Inhibition of GP2D Cells (IC50)
Method in brief: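 GP2D (K-Ras G12D) cells seeded in DMEM with 2 mM glutamine and 10% FBS, then dosed next day with a dilution series (e.g., 9-point 3-fold). Viability read by CellTiter-Glo luminescence after about 5 days. IC50 from four-parameter fit.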

A549 cells = experiment: Cell proliferation assay (CellTiter-Glo), K-Ras G12S cells; assay type: cell-based; details: for IC50: Homo sapiens; for ratio of IC50 against a G12D cell line to IC50 against a G12S cell line: K-Ras G12D cell line such as GP2D relative to K-Ras G12S cell line such as A549, greater than 1, 2, 3, 4, 5, 10, 15 or even greater, 8640 min
Method: A549 (ATCC CRL-185) and LS123 (ATCC CRL-255) cell lines comprise a G12S mutation and can be used to assess Ras cellular signaling in vitro, e.g., in response to the compounds herein. A549 culture medium is prepared with RPMI-1640 and 10% heat-inactivated FBS. LS123 culture medium is prepared with RPMI-1640 and 10% heat-inactivated FBS. A CellTiter-Glo (CTG) luminescent based assay (Promega) is used to assess growth of the cells, as a measurement of the ability of the compounds herein to inhibit Ras signaling in the cells. The cells (e.g., 800 per well) are seeded in their respective culture medium in standard tissue culture-treated 384-well format plates (Falcon #08-772-116) or ultra-low attachment surface 384-well format plates (S-Bio # MS-9384WZ). The day after plating, cells are treated with a dilution series (e.g., a 10 point 3-fold dilution series) of the compounds herein (e.g., approximately 40 µl final volume per well). Cell viability can be monitored (e.g., approximately 6 days later) according to the manufacturer's recommended instructions, where the CellTiter-Glo reagent is added (e.g., approximately 10 µl), vigorously mixed, covered, and placed on a plate shaker (e.g., approximately for 20 min) to ensure sufficient cell lysis prior to assessment of luminescent signal. The IC50 values are determined using the four parameter fit. The resulting IC50 value is a measurement of the ability of the compounds herein to reduce cell growth of Ras-driven cells (e.g., tumor cell lines) in vitro and/or in vivo.

[1] = A549, A549 cells (K-Ras G12S), bin 500 nM to 5 µM, read-out: Inhibition of A549 Cells (IC50)
[2] = A549, A549 cells (K-Ras G12S), bin ≤ 500 nM, read-out: Inhibition of A549 Cells (IC50)

Row | ratio of IC50 against a G12D cell line to IC50 against a G12S cell line (A549 cells) | SMILES | Ratio of IC50 KRAS G12D vs. IC50 KRAS G12S (K-Ras G12S) | IC50 (GP2D cells; GP2D cells (K-Ras G12D)) [nM] | IC50 (A549 cells; [1]) [nM] | IC50 (GP2D cells; GP2d) [nM] | IC50 (A549 cells; A549, read-out: Inhibition of A549 Cells (IC50)) [nM] | IC50 (A549 cells; [2]) [nM]
1 | – | Nc1nc2c(-c3c(Cl)cc4c(N5CCC6(CC5)CN(C(=O)n5cncn5)C6)nc(OC[C@@]56CCCN5C[C@H](F)C6)nc4c3F)ccc(F)c2s1 [Compound A233, (7-(7-(2-amino-7-fluorobenzo[d]thiazol-4-yl)-6-chloro-8-fluoro-2-(((2R,7aS)-2-fluorotetrahydro-1H-pyrrolizin-7a(5H)-yl)methoxy)quinazolin-4-yl)-2,7-diazaspiro[3.5]nonan-2-yl)(1H-1,2,4-triazol-1-yl)methanone] | A (A: indicates that the ratio of IC50 against KrasG12D vs. IC50 against KrasG12S is 1-fold or greater) | 1000 to 10000 | 500 to 5000 | – | – | –
2 | – | N#Cc1c(N)sc2c(F)ccc(-c3c(Cl)cc4c(N5CC6CCC(C5)N6C(=O)n5cc(C(F)(F)F)cn5)nc(OC[C@@]56CCCN5C[C@H](F)C6)nc4c3F)c12 [Compound A122, 2-amino-4-(6-chloro-8-fluoro-2-(((2R,7aS)-2-fluorotetrahydro-1H-pyrrolizin-7 a(5H)-yl)methoxy)-4-(8-(4-(trifluoromethyl)-1H-pyrazole-1-carbonyl)-3,8-diazabicyclo[3.2.1]octan-3-yl)quinazolin-7-yl)-7-fluorobenzo[b]thiophene-3-carbonitrile] | A (A: indicates that the ratio of IC50 against KrasG12D vs. IC50 against KrasG12S is 1-fold or greater) | ≤ 1000 | 500 to 5000 | – | – | –
3 | – | Cc1ncn(C(=O)N2CCCC(Oc3nc(OC[C@@]45CCCN4C[C@H](F)C5)nc4c(F)c(-c5ccc(F)c6sc(N)c(C#N)c56)c(Cl)cc34)CC2)n1 (stereo partly drawn) [Compound A174, 2-amino-4-(6-chloro-8-fluoro-2-(((2R,7aS)-2-fluorotetrahydro-1H-pyrrolizin-7 a(5H)-yl)methoxy)-4-((1-(3-methyl-1H-1 ,2,4-triazole-1-carbonyl)azepan-4-yl)oxy)quinazolin-7-yl)-7-fluorobenzo[b]thiophene-3-carbonitrile] | A (A: indicates that the ratio of IC50 against KrasG12D vs. IC50 against KrasG12S is 1-fold or greater) | 1000 to 10000 | 500 to 5000 | – | – | –
4 | – | Nc1nc2c(-c3c(Cl)cc4c(N5CC6CCC(C5)N6C(=O)n5ccnc5)nc(OC[C@@]56CCCN5C[C@H](F)C6)nc4c3F)ccc(F)c2s1 [Compound A289, (3-(7-(2-amino-7-fluorobenzo[d]thiazol-4-yl)-6-chloro-8-fluoro-2-(((2R,7aS)-2-fluorotetrahydro-1H-pyrrolizin-7a(5H)-yl)methoxy)quinazolin-4-yl)-3,8-diazabicyclo[3.2.1]octan-8-yl)(1H-imidazol-1-yl)methanone] | A (A: indicates that the ratio of IC50 against KrasG12D vs. IC50 against KrasG12S is 1-fold or greater) | ≤ 1000 | 500 to 5000 | – | – | –
5 | – | Nc1nc2c(-c3c(Cl)cc4c(N5CC6CCC(C5)N6C(=O)n5ccnn5)nc(OC[C@@]56CCCN5C[C@H](F)C6)nc4c3F)ccc(F)c2s1 [Compound A153, (3-(7-(2-amino-7-fluorobenzo[d]thiazol-4-yl)-6-chloro-8-fluoro-2-(((2R,7aS)-2-fluorotetrahydro-1H-pyrrolizin-7a(5H)-yl)methoxy)quinazolin-4-yl)-3,8-diazabicyclo[3.2.1]octan-8-yl)(1H-1,2,3-triazol-1-yl)methanone] | A (A: indicates that the ratio of IC50 against KrasG12D vs. IC50 against KrasG12S is 1-fold or greater) | – | – | ≤ 1000 | 500 to 5000 | –
6 | greater than 1 | N#Cc1c(N)sc2c(F)ccc(-c3c(Cl)cc4c(N5CCC6CN(C(=O)Nc7ncccn7)CCC65)nc(OC[C@@]56CCCN5C[C@H](F)C6)nc4c3F)c12 (stereo partly drawn) [Compound A251, 1-(7-(2-amino-3-cyano-7-fluorobenzo[b]thiophen-4-yl)-6-chloro-8-fluoro-2-(((2R,7aS)-2-fluorotetrahydro-1H-pyrrolizin-7a(5H)-yl)methoxy)quinazolin-4-yl)-N-(pyrimidin-2-yl)octahydro-5H-pyrrolo[3,2-c]pyridine-5-carboxamide] | – | 1000 to 10000 | – | – | – | ≤ 500
7 | greater than 1 | Cc1nc(C(C)C)nn1C(=O)N1CC2(CCCCN(c3nc(OC[C@@]45CCCN4C[C@H](F)C5)nc4c(F)c(-c5ccc(F)c6sc(N)c(C#N)c56)c(Cl)cc34)C2)C1 [Compound A305, 2-amino-4-(6-chloro-8-fluoro-2-(((2R,7aS)-2-fluorotetrahydro-1H-pyrrolizin-7 a(5H)-yl)methoxy)-4-(2-(3-isopropyl-5-methyl-1H-1,2,4-triazole-1-carbonyl)-2,6-diazaspiro[3.6]decan-6-yl)quinazolin-7-yl)-7-fluorobenzo[b]thiophene-3-carbonitrile] | – | 1000 to 10000 | – | – | – | ≤ 500
8 | – | N#Cc1c(N)sc2c(F)ccc(-c3c(Cl)cc4c(N5CC6CCC(C5)N6C(=O)Nc5ncccn5)nc(OC[C@@]56CCCN5C[C@H](F)C6)nc4c3F)c12 [Compound A215, 3-(7-(2-amino-3-cyano-7-fluorobenzo[b]thiophen-4-yl)-6-chloro-8-fluoro-2-(((2R,7aS)-2-fluorotetrahydro-1H-pyrrolizin-7a(5H)-yl)methoxy)quinazolin-4-yl)-N-(pyrimidin-2-yl)-3,8-diazabicyclo[3.2. 1]octane-8-carboxamide] | – | ≤ 1000 | – | – | – | ≤ 500
9 | – | Cc1ncn(C(=O)N2CC3CN(c4nc(OC[C@@]56CCCN5C[C@H](F)C6)nc5c(F)c(-c6ccc(F)c7sc(N)c(C#N)c67)c(Cl)cc45)CC32)n1 (stereo partly drawn) [Compound A196, 2-amino-4-(6-chloro-8-fluoro-2-(((2R,7aS)-2-fluorotetrahydro-1H-pyrrolizin-7 a(5H)-yl)methoxy)-4-(6-(3-methyl-1H-1,2,4-triazole-1-carbonyl)-3,6-diazabicyclo[3.2.0]heptan-3-yl)quinazolin-7-yl)-7-fluorobenzo[b]thiophene-3-carbonitrile] | – | ≤ 1000 | – | – | – | ≤ 500
10 | – | C#Cc1c(F)ccc2cc(O)cc(-c3ncc4c(N5CC6CCC(C5)N6C(=O)n5cc(C#N)cn5)nc(OC[C@@]56CCCN5C[C@H](F)C6)nc4c3F)c12 [Compound A143, 1-(3-(7-(8-ethynyl-7-fluoro-3-hydroxynaphthalen-1-yl)-8-fluoro-2-(((2R,7aS)-2-fluorotetrahydro-1H-pyrrolizin-7a(5H)-yl)methoxy)pyrido[4,3-d]pyrimidin-4-yl)-3,8-diazabicyclo[3.2. 1]octane-8-carbonyl)-1H-pyrazole-4-carbonitrile] | – | ≤ 1000 | – | – | – | ≤ 500
11 | – | N#Cc1c(N)sc2c(F)ccc(-c3c(Cl)cc4c(N5CC6CCC(C5)N6C(=O)n5ccnc5)nc(OC[C@@]56CCCN5C[C@H](F)C6)nc4c3F)c12 [Compound A105, 4-(4-(8-(1H-imidazole-1-carbonyl)-3,8-diazabicyclo[3.2.1]octan-3-yl)-6-chloro-8-fluoro-2-(((2R,7aS)-2-fluorotetrahydro-1H-pyrrolizin-7a(5H)-yl)methoxy)quinazolin-7-yl)-2-amino-7-fluorobenzo[b]thiophene-3-carbonitrile] | – | ≤ 1000 | – | – | – | ≤ 500
12 | – | N#Cc1cnn(C(=O)N2C3CCC2CN(c2nc(OC[C@@]45CCCN4C[C@H](F)C5)nc4c(F)c(-c5ccc(F)c6sc(N)nc56)c(Cl)cc24)C3)c1 [Compound A253, 1-(3-(7-(2-amino-7-fluorobenzo[d]thiazol-4-yl)-6-chloro-8-fluoro-2-(((2R,7aS)-2-fluorotetrahydro-1H-pyrrolizin-7a(5H)-yl)methoxy)quinazolin-4-yl)-3,8-diazabicyclo[3.2. 1]octane-8-carbonyl)-1H-pyrazole-4-carbonitrile] | – | ≤ 1000 | 500 to 5000 | – | – | –
13 | – | N#Cc1c(N)sc2c(F)ccc(-c3c(Cl)cc4c(N5CC6CN(C(=O)n7cncn7)C6C5)nc(OC[C@@]56CCCN5C[C@H](F)C6)nc4c3F)c12 (stereo partly drawn) [Compound A306, 4-(4-(6-(1H-1,2,4-triazole-1-carbonyl)-3,6-diazabicyclo[3.2.0]heptan-3-yl)-6-chloro-8-fluoro-2-(((2R,7aS)-2-fluorotetrahydro-1H-pyrrolizin-7a(5H)-yl)methoxy)quinazolin-7-yl)-2-amino-7-fluorobenzo[b]thiophene-3-carbonitrile] | – | ≤ 1000 | 500 to 5000 | – | – | –
